According to US12077503B2, “Substituted cyclic amides and their use as herbicides” (FMC CORPORATION, priority 2015, dated 2024):

Key:
Assay type in all cases: in vivo
[1] = system: barnyardgrass (Echinochloa crus-galli); experiment: Test A preemergence; details: Echinochloa crus-galli, pre-emergence, 240 h; for pest or weed control at 125 g/ha: 125 g ai/ha, preemergence, visual rating after approx. 10 d, 0 to 100 scale where 0 is no effect and 100 is complete control, read-out: Plant response rating, Barnyardgrass; for pest or weed control at 500 g/ha: 500 g ai/ha, Preemergence, visual injury vs untreated controls after approximately 10 d, read-out: Barnyardgrass plant response rating (0 to 100 scale where 0 is no effect and 100 is complete control)
How it was run: (§1)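 Seeds sprayed preemergence with a directed soil spray, or plants at 2 to 10 cm height and one- to two-leaf stage sprayed postemergence, with test chemicals in a non-phytotoxic solvent mixture containing surfactant, in loam soil–sand blend. Injury rated visually against untreated controls after about 10 d in greenhouse, 0 (no effect) to 100 (complete control).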

Kochia (Kochia scoparia) [2] = experiment: Test A preemergence; details: Bassia scoparia, pre-emergence, 240 h; for pest or weed control at 500 g/ha: 500 g ai/ha, Preemergence, visual injury vs untreated controls after approximately 10 d, read-out: Kochia plant response rating (0 to 100 scale where 0 is no effect and 100 is complete control)
How it was run: as §1

[3] = system: pigweed (Amaranthus retroflexus); experiment: Test A preemergence; details: Amaranthus retroflexus, pre-emergence, 240 h; for pest or weed control at 125 g/ha: 125 g ai/ha, preemergence, visual rating after approx. 10 d, 0 to 100 scale where 0 is no effect and 100 is complete control, read-out: Plant response rating, Pigweed; for pest or weed control at 500 g/ha: 500 g ai/ha, Preemergence, visual injury vs untreated controls after approximately 10 d, read-out: Pigweed plant response rating (0 to 100 scale where 0 is no effect and 100 is complete control)
[4] = system: ragweed (common ragweed, Ambrosia elatior); experiment: Test A preemergence; details: Ambrosia artemisiifolia, pre-emergence, 240 h; for pest or weed control at 125 g/ha: 125 g ai/ha, preemergence, visual rating after approx. 10 d, 0 to 100 scale where 0 is no effect and 100 is complete control, read-out: Plant response rating, Ragweed; for pest or weed control at 500 g/ha: 500 g ai/ha, Preemergence, visual injury vs untreated controls after approximately 10 d, read-out: Ragweed plant response rating (0 to 100 scale where 0 is no effect and 100 is complete control)
How it was run: as §1

[5] = system: ryegrass, Italian (Italian ryegrass, Lolium multiflorum); experiment: Test A preemergence; details: Lolium multiflorum, pre-emergence, 240 h; for pest or weed control at 125 g/ha: 125 g ai/ha, preemergence, visual rating after approx. 10 d, 0 to 100 scale where 0 is no effect and 100 is complete control, read-out: Plant response rating, Ryegrass, Italian; for pest or weed control at 500 g/ha: 500 g ai/ha, Preemergence, visual injury vs untreated controls after approximately 10 d, read-out: Ryegrass, Italian plant response rating (0 to 100 scale where 0 is no effect and 100 is complete control)
How it was run: as §1

[6] = system: Galium (catchweed bedstraw, Galium aparine); experiment: Test A postemergence; details: Galium, post-emergence, 240 h, 125 g ai/ha, postemergence; visual injury after approximately 10 d; 0 to 100 scale (0 no effect, 100 complete control); read-out: Plant response rating, Galium
How it was run: as §1

[7] = system: barnyardgrass (Echinochloa crus-galli); experiment: Test A postemergence; details: Echinochloa crus-galli, post-emergence, 240 h, 125 g ai/ha, postemergence; visual injury after approximately 10 d; 0 to 100 scale (0 no effect, 100 complete control); read-out: Plant response rating, Barnyardgrass
How it was run: as §1

[8] = system: giant foxtail (Setaria faberii); experiment: Test A postemergence; details: Setaria faberi, post-emergence, 240 h, 125 g ai/ha, postemergence; visual injury after approximately 10 d; 0 to 100 scale (0 no effect, 100 complete control); read-out: Plant response rating, Foxtail, Giant
How it was run: as §1

corn (Zea mays) = experiment: Test A postemergence; details: Zea mays, post-emergence, 240 h, 125 g ai/ha, postemergence; visual injury after approximately 10 d; 0 to 100 scale (0 no effect, 100 complete control)
How it was run: as §1

Kochia (Kochia scoparia) [9] = experiment: Test A postemergence; details: Bassia scoparia, post-emergence, 240 h, 125 g ai/ha, postemergence; visual injury after approximately 10 d; 0 to 100 scale (0 no effect, 100 complete control); read-out: Plant response rating, Kochia
How it was run: as §1

[10] = system: pigweed (Amaranthus retroflexus); experiment: Test A postemergence; details: Amaranthus retroflexus, post-emergence, 240 h, 125 g ai/ha, postemergence; visual injury after approximately 10 d; 0 to 100 scale (0 no effect, 100 complete control); read-out: Plant response rating, Pigweed
How it was run: as §1

[11] = system: blackgrass (Alopecurus myosuroides); experiment: Test A postemergence; details: Alopecurus myosuroides, post-emergence, 240 h, 125 g ai/ha, postemergence; visual injury after approximately 10 d; 0 to 100 scale (0 no effect, 100 complete control); read-out: Plant response rating, Blackgrass
How it was run: as §1

[12] = system: ragweed (common ragweed, Ambrosia elatior); experiment: Test A postemergence; details: Ambrosia artemisiifolia, post-emergence, 240 h, 125 g ai/ha, postemergence; visual injury after approximately 10 d; 0 to 100 scale (0 no effect, 100 complete control); read-out: Plant response rating, Ragweed
How it was run: as §1

[13] = system: ryegrass, Italian (Italian ryegrass, Lolium multiflorum); experiment: Test A postemergence; details: Lolium multiflorum, post-emergence, 240 h, 125 g ai/ha, postemergence; visual injury after approximately 10 d; 0 to 100 scale (0 no effect, 100 complete control); read-out: Plant response rating, Ryegrass, Italian
How it was run: as §1

| Compound | pest or weed control at 125 g/ha [1] | pest or weed control at 500 g/ha [1] | pest or weed control at 500 g/ha (Kochia (Kochia scoparia) [2]) | pest or weed control at 125 g/ha [3] | pest or weed control at 500 g/ha [3] | pest or weed control at 125 g/ha [4] | pest or weed control at 500 g/ha [4] | pest or weed control at 125 g/ha [5] | pest or weed control at 500 g/ha [5] | pest or weed control at 125 g/ha [6] | pest or weed control at 125 g/ha [7] | pest or weed control at 125 g/ha [8] | Corn plant response rating (crop injury, 0 = no effect, 100 = complete kill) at 125 g/ha (corn (Zea mays)) | pest or weed control at 125 g/ha (Kochia (Kochia scoparia) [9]) | pest or weed control at 125 g/ha [10] | pest or weed control at 125 g/ha [11] | pest or weed control at 125 g/ha [12] | pest or weed control at 125 g/ha [13] | pest or weed control at 125 g/ha (Kochia (Kochia scoparia) [2]; 125 g ai/ha, preemergence, visual rating after approx. 10 d, 0 to 100 scale where 0 is no effect and 100 is complete control, read-out: Plant response rating, Kochia) |
| --- | --- | --- | --- | --- | --- | --- | --- | --- | --- | --- | --- | --- | --- | --- | --- | --- | --- | --- | --- |
| Cc1cc([C@H]2CNC(=O)[C@@H]2C(=O)Nc2ccccc2F)ccc1Cl [Compound 789] | 90% | 90% | 30% | 0% | 20% | 0% | 0% | 0% | 0% | 40% | 80% | 30% | 20% | 0% | 0% | 40% | 0% | 0% | – |
| Cc1cc([C@H]2CNC(=O)[C@@H]2C(=O)Nc2cccc(F)c2F)ccc1Cl [Compound 790] | 90% | 90% | 80% | 0% | 40% | 20% | 60% | 30% | 70% | 50% | 80% | 50% | 30% | 40% | 20% | 40% | 30% | 0% | 70% |
